Source: US5624957A, “Rary-specific retinobenzoic acid derivatives” (Bristol-Myers Squibb Company, priority 1995, dated 1997)

What was measured:
[1] = rat, in vivo, po, 150 mg/kg
Excerpt: Compounds having the beneficial pharmacological effects of retinoids but without retinoid-induced hypertriglyceridemia would be especially desirable for oral retinoid therapy.

[2] = systemic use; cited from earlier work
[3] = system: Rhino Mouse Utriculi; assay: Rhino mouse model, reduction of utriculi (comedolytic activity); assay type: in vivo; conditions: for ED30 (the concentration producing a 30% reduction in the rhino mouse utriculi): interpolation of regression lines of log concentration-percent reduction plots
Procedure: When representative compounds of the present invention were tested using that same procedure, the ED30 (the concentration producing a 30% reduction in the rhino mouse utriculi) values calculated by interpolation of the regression lines of the log concentration-percent reduction plots were as follows: […]

[4] = biological target: T1, RARβ (Homo sapiens, UniProt P10826); assay: Receptor transactivation assay, RARβ (CAT reporter, HeLa cells); assay type: cell-based
T1 construct: expressed in transfected cells; host or cells: HeLa
T1 sequence (P10826 1-448 isoform P10826-2): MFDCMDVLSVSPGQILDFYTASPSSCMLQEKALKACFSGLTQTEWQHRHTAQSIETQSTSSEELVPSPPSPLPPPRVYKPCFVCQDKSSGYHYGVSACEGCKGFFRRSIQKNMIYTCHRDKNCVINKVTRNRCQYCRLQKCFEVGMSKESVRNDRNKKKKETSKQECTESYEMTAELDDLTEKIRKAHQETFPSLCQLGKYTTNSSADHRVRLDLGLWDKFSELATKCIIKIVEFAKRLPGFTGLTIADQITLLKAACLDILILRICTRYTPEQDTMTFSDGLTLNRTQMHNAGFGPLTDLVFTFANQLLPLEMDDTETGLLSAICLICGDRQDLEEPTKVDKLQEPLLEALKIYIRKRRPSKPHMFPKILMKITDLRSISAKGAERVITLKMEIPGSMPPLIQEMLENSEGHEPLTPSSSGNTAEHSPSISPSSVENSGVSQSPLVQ
Procedure: (§1) Activation of just one receptor and failure to activate another is the basis for selectivity/specificity.
(§2) In the retinoid transactivation assay, HeLa cells are co-transfected with DNA encoding RAR α, β, or γ, and an RAR-responsive CAT (chloramphenicol acetyltransferase) reporter gene. Retinoid efficacy is measured by the concentration of induced CAT gene product as determined by ELISA assay. […] The mean EC50 value for each of the receptors is calculated using a computer generated induced-fit program.

[5] = biological target: T2, RARγ (Homo sapiens, UniProt P13631); assay: Receptor transactivation assay, RARγ (CAT reporter, HeLa cells); assay type: cell-based
T2 construct: expressed in transfected cells; host or cells: HeLa
T2 sequence (P13631 1-454): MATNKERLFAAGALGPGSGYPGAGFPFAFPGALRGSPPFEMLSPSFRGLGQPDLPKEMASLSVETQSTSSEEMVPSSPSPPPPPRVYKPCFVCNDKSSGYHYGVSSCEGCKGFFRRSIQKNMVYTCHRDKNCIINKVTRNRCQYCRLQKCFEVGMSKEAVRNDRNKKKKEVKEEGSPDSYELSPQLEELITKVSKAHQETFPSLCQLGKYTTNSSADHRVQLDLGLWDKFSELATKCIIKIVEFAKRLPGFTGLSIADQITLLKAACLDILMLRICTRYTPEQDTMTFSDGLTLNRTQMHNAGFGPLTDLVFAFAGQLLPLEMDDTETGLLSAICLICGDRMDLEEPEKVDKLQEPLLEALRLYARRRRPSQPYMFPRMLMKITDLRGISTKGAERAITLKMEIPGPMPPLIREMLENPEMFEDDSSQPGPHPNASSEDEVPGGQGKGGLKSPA
Procedure: as §1, §2

[6] = biological target: T3, RARα (Homo sapiens, UniProt P10276); assay: Receptor transactivation assay, RARα (CAT reporter, HeLa cells); assay type: cell-based
T3 construct: expressed in transfected cells; host or cells: HeLa
T3 sequence (P10276 1-462): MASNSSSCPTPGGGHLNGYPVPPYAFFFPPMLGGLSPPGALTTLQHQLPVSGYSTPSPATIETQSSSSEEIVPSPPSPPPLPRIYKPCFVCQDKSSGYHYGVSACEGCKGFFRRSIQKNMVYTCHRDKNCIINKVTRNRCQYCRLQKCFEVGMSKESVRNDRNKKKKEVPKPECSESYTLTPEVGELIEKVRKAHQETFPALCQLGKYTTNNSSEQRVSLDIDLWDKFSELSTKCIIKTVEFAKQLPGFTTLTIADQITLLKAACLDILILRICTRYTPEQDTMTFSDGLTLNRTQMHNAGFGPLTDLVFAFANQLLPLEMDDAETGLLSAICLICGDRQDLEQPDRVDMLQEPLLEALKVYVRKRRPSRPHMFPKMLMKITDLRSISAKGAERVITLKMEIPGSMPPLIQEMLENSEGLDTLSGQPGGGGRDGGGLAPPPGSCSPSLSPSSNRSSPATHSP
Procedure: as §1, §2

[7] = system: RAR α, β, or γ; assay: Receptor transactivation assay, RAR subtypes taken together; assay type: cell-based; conditions: read-out: EC50 for retinoic acid; varies for given receptors; usually in this range
Excerpt: Activation of just one receptor and failure to activate another is the basis for selectivity/specificity. In our definitions, "selectivity" means that the compound preferentially activates one receptor but also activates at least one other at a higher concentration and "specificity" means that the compound activates only one receptor in the concentration range tested. The details of the receptor-based transactivation assay are disclosed in the literature, e.g. see Nature 1988, 332, 850-853.
as §2, with “assay. Retinoic acid (RA) is used as a reference compound.” for “assay.”
"N.A." means that the compound had no transactivation at any dose tested (up to 10^-6 M).

Row | Structure (SMILES) | Transactivation ratio γ (EC50 of test compound / EC50 of retinoic acid) [5] | ED30 (the concentration producing a 30% reduction in the rhino mouse utriculi) [3] | other results
1 | CC1=C(/C=C/C(C)=C/C=C/C(C)=C\C(=O)O)C(C)(C)CCC1 [13-cis-retinoic acid] | – | – | Increase in serum triglyceride levels [1]: ~ 350%; Elevation in triglyceride levels, fraction of patients treated [2]: […]
2 | CC1(C)CCC(C)(C)c2cc(C(O)C(=O)Nc3ccc(C(=O)O)cc3F)ccc21 (stereo not shown) [Example 1, 3-Fluoro-4(2'(5",6",7",8"-tetrahydro-5",5",8",8"-tetramethyl-2"-naphthyl)-2'-hydroxy)acetamidobenzoic acid] | – | 155 µM | –
3 | CC1(C)CCC(C)(C)c2cc(C(O)C(=O)Nc3ccc(C(=O)O)cc3O)ccc21 (stereo not shown) [Example 7] | 40 | – | Reduction in rhino mouse utriculi ([3]; at 16.5 mM): 32%
4 | Cc1cc(C(=O)O)ccc1NC(=O)C(O)c1ccc2c(c1)C(C)(C)CCC2(C)C (stereo not shown) [Example 8] | 66.7 | 1050 µM | –

Now from value to compound, other results behind:

Row | Transactivation ratio γ (EC50 of test compound / EC50 of retinoic acid) [5] | Structure (SMILES) | ED30 (the concentration producing a 30% reduction in the rhino mouse utriculi) [3] | other results
6 | 6.7 | CC1(C)CCC(C)(C)c2cc(C(O)C(=O)Nc3ccc(C(=O)O)cc3)ccc21 (stereo not shown) [Example 2] | – | Transactivation ratio β (EC50 of test compound / EC50 of retinoic acid) [4]: 50; Transactivation ratio α (EC50 of test compound / EC50 of retinoic acid) [6]: 66.7
7 | 13.3 | CC1(C)CCC(C)(C)c2cc(C(O)C(=O)Nc3ccc(C(=O)O)cc3Cl)ccc21 (stereo not shown) [Example 6] | – | –
